From ChEMBL document CHEMBL1201862, “PubChem BioAssay data set” (2004)
Calls of active or inactive are those of the source.

Key:
[1] = molecular target: 5-hydroxytryptamine receptor 1E (Homo sapiens, UniProt P28566); assay: Counterscreen assay for S1P3 antagonists: Dose response cell-based high throughput screening assay to identify antagonists of the 5-Hydroxytryptamine Receptor Subtype 1E (5HT1E). [Related pubchem assays: 1429, 485 ]; type: functional
[2] = molecular target: Sphingosine 1-phosphate receptor 3 (Homo sapiens, UniProt Q99500); assay: Dose response cell-based high throughput screening assay for antagonists of the Sphingosine 1-Phosphate Receptor 3 (S1P3). [Related pubchem assays: 1429, 485 ]; type: functional
Sphingosine 1-phosphate receptor 3, sequence (Q99500 whole entry): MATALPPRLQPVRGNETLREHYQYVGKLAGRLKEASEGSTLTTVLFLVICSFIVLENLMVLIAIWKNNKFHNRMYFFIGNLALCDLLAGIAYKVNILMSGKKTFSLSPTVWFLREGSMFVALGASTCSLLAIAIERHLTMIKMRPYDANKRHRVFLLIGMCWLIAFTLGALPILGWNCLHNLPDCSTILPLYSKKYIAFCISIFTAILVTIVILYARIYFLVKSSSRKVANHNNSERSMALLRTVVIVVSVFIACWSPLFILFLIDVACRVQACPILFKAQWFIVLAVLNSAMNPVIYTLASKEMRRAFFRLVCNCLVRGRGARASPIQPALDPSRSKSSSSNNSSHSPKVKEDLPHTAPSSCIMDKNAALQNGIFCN

[3] = Luminescence Cell-Based Dose Response to Identify Activators of 5'UTR Stem-Loop Driven Prion Protein mRNA Translation in H4-C Neuroglioblastoma Cells. [Related pubchem assays: 1829 (Project Summary), 1814 (Primary HTS)]; type: functional
[4] = Luminescence Cell-Based Dose Response HTS to Identify Activators of Luciferase Translation or Activity in H4 […] Cells. [Related pubchem assays: 1829 (Project Summary), 1814 (Primary HTS)]; type: functional
H4 = assay: Luminescence Cell-Based Dose Response HTS to Identify Activators of 5'UTR Stem-Loop Driven Prion Protein mRNA Translation in H4 Neuroglioblastoma Cells. [Related pubchem assays: 1829 (Project Summary), 1814 (Primary HTS)]; type: functional; details: Homo sapiens
[5] = Luminescence Cell-Based Dose Response to Identify Activators of Luciferase Translation or Activity in H4-C Neuroglioblastoma Cells. [Related pubchem assays: 1829 (Project Summary), 1814 (Primary HTS)]; type: functional
[6] = Luminescence Cell-Based Dose Confirmation to Identify Activators of 5'UTR Stem-Loop Driven Alpha-Synuclein mRNA Translation in H4 Neuroglioblastoma Cells. [Related pubchem assays: 1829 (Project Summary), 1814 (Primary HTS)]; type: functional
[7] = HEp-2 cell cytotoxicity, dose response, cytotoxicity control for RSV inhibitor project, HTS (AID 2410); type: functional; details: human respiratory syncytial virus
[8] = inhibitors of Bluetongue virus cytopathic effect, confirmation, arbovirus, BSR cells (AID 1250); type: functional;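 also: protection from viral cytopathic effect measured as cell viability by ATP luminescence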
[9] = cytotoxicity in HPDE-C7 cells, cell-based, fluorescence, HTS (AID 430); type: functional; details: Homo sapiens
[10] = cytotoxicity in KRAS-transformed pancreatic duct cells, primary screen, cell-based, fluorescence, HTS (AID 431); type: functional; details: Homo sapiens;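 also: cell line used: HPDE-C7K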
[11] = Luminescence Cell-Based Dose Confirmation HTS to Identify Activators of 5'UTR Stem-Loop Driven Alpha-Synuclein mRNA Translation in H4 Neuroglioblastoma Cells. [Related pubchem assays: 1829 (Project Summary), 1814 (Primary HTS)]; type: functional
[12] = molecular target: T1, Endoribonuclease toxin MazF (Escherichia coli K-12, UniProt P0AE70); assay: MazF toxin RNase activators, dose response, biochemical, fluorescence, single-stranded RNA substrate, uHTS hits (AID 588481); type: functional
T1 sequence (P0AE70 whole entry): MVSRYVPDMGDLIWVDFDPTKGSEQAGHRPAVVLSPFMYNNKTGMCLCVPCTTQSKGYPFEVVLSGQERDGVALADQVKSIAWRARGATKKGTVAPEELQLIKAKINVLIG

[13] = molecular target: T1, Endoribonuclease toxin MazF; assay: fluorescent RNA oligo signal without MazF, dose response, counter-screen for MazEF activator project, biochemical, fluorescence, single-stranded RNase substrate (AID 588502); type: functional
Estrogen receptor = molecular target: T2, Estrogen receptor (Homo sapiens, UniProt P03372);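 also: potency for inhibiting coactivator peptide recruitment to the receptor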
T2 sequence (P03372 whole entry): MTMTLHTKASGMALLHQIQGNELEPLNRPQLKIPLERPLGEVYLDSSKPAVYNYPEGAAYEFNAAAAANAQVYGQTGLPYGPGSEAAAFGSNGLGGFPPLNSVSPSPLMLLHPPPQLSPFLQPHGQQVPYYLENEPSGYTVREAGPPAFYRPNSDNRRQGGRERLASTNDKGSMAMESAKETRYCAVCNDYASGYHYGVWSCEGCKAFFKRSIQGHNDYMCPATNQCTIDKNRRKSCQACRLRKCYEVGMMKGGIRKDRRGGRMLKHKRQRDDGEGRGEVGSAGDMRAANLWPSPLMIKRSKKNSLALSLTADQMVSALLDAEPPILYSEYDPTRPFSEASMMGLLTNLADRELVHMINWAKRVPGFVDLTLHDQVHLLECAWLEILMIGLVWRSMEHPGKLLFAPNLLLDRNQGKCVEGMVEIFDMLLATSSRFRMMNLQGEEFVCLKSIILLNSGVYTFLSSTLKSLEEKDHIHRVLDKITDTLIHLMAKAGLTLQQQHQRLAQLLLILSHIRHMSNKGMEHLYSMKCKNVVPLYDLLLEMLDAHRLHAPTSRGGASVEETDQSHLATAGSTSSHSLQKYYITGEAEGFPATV

Mucolipin-3 = Mucolipin-3 (Homo sapiens, UniProt Q8TDD5); assay: Dose response cell-based high-throughput screening assay for agonists of the transient receptor potential channel ML3 (TRPML3). [Related pubchem assays: 1526, 1424, 1448 ]; type: functional
Mucolipin-3, sequence (Q8TDD5 whole entry): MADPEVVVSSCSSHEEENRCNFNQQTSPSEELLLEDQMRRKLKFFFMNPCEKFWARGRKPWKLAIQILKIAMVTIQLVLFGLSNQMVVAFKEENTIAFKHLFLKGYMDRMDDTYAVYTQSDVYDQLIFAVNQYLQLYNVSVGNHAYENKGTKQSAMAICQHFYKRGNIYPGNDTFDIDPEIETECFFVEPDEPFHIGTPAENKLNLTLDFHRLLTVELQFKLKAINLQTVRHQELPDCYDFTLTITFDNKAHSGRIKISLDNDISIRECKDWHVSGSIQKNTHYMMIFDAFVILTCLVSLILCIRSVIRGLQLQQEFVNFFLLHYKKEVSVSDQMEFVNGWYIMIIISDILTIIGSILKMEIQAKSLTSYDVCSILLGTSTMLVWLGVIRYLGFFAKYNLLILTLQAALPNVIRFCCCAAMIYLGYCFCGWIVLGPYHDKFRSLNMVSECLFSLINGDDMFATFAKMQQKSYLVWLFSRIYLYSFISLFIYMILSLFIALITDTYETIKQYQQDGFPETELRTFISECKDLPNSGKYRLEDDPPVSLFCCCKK

Ion channel NompC = Ion channel NompC (Danio rerio, UniProt Q7T1G6); assay: Fluorescence counterscreen assay for TRPML3 agonists: dose response cell-based high-throughput screening assay to identify agonists of the transient receptor potential channel N1 (TRPN1). [Related pubchem assays: 1526, 1424, 1448 ]; type: functional
Ion channel NompC, sequence (Q7T1G6 whole entry): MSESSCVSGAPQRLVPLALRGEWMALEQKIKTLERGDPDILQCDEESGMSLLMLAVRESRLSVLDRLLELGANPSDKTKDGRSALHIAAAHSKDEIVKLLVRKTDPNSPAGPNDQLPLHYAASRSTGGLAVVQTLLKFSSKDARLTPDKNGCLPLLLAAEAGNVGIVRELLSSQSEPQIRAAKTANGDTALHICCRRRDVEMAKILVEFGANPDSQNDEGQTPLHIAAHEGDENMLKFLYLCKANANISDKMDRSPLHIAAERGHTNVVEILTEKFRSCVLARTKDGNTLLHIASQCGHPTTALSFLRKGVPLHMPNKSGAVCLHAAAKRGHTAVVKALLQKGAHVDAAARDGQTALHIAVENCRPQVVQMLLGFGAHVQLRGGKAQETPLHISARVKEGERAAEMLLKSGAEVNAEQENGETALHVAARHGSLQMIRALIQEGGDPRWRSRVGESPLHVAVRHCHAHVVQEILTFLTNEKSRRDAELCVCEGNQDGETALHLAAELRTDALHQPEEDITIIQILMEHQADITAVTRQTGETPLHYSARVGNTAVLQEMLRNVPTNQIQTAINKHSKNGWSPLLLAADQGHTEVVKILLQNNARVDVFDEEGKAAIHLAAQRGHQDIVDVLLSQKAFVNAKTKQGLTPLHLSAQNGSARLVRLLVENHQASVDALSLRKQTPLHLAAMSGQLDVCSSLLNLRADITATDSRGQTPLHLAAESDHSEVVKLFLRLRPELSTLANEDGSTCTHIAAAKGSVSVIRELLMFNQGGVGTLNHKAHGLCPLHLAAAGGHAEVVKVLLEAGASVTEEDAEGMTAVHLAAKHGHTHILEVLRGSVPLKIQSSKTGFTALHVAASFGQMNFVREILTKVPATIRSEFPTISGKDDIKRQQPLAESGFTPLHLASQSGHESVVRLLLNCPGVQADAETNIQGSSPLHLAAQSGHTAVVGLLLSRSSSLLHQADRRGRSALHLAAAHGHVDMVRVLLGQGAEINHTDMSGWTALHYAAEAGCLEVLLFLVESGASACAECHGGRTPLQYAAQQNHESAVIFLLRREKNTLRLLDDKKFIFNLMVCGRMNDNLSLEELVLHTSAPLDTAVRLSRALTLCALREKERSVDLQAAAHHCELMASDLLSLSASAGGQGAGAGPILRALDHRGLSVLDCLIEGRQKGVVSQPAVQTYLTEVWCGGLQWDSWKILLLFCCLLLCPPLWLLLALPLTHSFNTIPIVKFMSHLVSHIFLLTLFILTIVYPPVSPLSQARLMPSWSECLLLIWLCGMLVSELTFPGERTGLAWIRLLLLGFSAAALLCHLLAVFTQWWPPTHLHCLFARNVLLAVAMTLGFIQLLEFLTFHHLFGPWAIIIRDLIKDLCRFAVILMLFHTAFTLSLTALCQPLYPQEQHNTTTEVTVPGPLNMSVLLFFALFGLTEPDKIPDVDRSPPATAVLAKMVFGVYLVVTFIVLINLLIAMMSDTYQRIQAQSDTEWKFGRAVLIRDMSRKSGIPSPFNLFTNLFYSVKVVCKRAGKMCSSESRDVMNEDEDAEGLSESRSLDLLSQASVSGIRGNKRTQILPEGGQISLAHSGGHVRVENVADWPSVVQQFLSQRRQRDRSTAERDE

NS3 = NS3 (Hepatitis C virus, UniProt A3EZJ3); assay: PubChem AID 2173; parameters: species or system Hepacivirus hominis
Protein Rev = molecular target: T3, Protein Rev (Human immunodeficiency virus type 1 group M subtype B (isolate WMJ22)(HIV-1), UniProt P05866); assay: HIV-1 Rev-RRE RNA binding disruptors, dose response, biochemical, protein-RNA interaction (AID 842); parameters: species or system Human immunodeficiency virus 1
T3 sequence (P05866 whole entry): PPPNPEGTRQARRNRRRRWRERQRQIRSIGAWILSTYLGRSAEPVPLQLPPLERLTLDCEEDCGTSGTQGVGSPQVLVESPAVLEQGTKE

[14] = molecular target: Protein-tyrosine kinase 2-beta (Homo sapiens, UniProt Q14289);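 also: potency of inhibitors of PYK2 kinase phosphorylation of poly-GT substrate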
Protein-tyrosine kinase 2-beta, sequence (Q14289 whole entry): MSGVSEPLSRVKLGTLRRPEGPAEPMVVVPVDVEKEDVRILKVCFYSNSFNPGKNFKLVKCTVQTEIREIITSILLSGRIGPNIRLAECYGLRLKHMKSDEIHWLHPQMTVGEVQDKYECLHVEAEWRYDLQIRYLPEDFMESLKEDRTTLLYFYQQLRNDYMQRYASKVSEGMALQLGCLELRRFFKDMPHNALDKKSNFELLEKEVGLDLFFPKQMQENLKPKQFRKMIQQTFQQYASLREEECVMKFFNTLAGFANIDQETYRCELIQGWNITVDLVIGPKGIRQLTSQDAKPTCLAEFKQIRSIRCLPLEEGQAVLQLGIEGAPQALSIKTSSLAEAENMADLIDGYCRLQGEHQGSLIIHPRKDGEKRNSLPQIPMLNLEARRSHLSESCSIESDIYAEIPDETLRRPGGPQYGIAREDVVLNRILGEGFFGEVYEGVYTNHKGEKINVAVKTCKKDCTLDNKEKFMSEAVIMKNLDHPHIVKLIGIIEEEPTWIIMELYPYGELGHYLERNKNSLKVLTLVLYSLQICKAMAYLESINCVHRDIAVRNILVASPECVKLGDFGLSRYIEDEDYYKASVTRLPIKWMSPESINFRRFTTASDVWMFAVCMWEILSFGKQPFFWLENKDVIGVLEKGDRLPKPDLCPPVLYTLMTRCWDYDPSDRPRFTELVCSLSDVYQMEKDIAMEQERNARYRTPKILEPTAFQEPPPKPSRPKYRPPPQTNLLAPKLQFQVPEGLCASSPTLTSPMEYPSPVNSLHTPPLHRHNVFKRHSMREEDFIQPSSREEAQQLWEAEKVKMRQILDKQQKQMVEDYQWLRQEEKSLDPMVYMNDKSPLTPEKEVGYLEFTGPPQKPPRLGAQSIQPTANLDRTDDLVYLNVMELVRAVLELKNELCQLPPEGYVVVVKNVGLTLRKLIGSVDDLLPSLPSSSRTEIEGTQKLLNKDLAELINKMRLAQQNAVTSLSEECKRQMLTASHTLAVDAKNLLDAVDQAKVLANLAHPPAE

[15] = molecular target: DNA dC->dU-editing enzyme APOBEC-3G (Homo sapiens, UniProt Q9HC16); assay: Dose Response confirmation of small molecule APOBEC3G DNA Deaminase Inhibitors via a fluorescence-based single-stranded DNA deaminase assay. [Related pubchem assays (depositor defined):AID493012, AID493028]; type: functional
DNA dC->dU-editing enzyme APOBEC-3G, sequence (Q9HC16 whole entry, the tested form may be a part): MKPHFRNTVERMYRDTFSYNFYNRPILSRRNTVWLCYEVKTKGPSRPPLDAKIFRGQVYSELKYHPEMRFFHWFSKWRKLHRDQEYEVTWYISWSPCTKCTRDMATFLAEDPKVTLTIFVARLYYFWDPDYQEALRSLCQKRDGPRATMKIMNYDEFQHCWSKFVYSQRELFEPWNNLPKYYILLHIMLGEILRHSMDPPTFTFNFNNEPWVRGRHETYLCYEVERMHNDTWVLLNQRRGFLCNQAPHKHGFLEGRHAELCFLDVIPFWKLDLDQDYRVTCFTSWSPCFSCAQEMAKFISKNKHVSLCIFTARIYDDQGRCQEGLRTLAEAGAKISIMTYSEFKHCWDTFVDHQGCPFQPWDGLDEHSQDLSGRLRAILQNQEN

[16] = molecular target: T4, Carboxy-terminal domain RNA polymerase II polypeptide A small phosphatase 1 (Homo sapiens, UniProt Q9GZU7); assay: inhibitors of CTDSP1, concentration-response testing, biochemical assay, absorbance-based, actives from ultra-high-throughput screening (AID 540297); type: functional
T4 sequence (Q9GZU7 whole entry): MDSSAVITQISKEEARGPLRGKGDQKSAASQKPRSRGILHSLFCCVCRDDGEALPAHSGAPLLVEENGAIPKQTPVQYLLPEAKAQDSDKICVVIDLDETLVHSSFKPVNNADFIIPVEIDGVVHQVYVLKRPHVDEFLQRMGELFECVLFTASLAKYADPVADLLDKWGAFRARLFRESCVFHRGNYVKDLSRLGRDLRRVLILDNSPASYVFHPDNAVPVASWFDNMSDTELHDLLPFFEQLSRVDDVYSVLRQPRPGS

[17] = molecular target: T5, Low molecular weight phosphotyrosine protein phosphatase (Homo sapiens, UniProt P24666); type: functional; details: read-out: IC50_Mean
T5 sequence (P24666 whole entry): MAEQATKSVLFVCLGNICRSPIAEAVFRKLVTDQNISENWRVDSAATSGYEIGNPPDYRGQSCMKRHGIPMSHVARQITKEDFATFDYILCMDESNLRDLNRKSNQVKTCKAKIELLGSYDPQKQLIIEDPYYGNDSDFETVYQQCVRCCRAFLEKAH

[18] = molecular target: T5, Low molecular weight phosphotyrosine protein phosphatase; type: functional; details: read-out: IC50_Mean; remark: listed apart in the source
[19] = HIV-1 Env-mediated cell fusion inhibitors, dose response, CCR5-tropic Env (AID 2279); type: functional
[20] = molecular target: T6, Calpain-2 catalytic subunit (Sus scrofa, UniProt P43367); assay: pig calpain II inhibitor potency, dose response, biochemical, fluorogenic peptide substrate (AID 1420); type: functional
T6 sequence (P43367 whole entry): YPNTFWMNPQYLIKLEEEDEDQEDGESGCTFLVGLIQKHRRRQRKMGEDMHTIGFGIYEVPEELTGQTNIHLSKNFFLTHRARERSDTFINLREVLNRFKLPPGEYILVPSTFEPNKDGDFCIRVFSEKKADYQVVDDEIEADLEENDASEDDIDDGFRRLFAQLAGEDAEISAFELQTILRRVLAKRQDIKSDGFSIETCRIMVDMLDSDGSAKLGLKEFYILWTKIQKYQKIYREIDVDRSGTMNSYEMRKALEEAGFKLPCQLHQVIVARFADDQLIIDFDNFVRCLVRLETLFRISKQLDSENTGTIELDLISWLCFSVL

[21] = molecular target: Eukaryotic translation initiation factor 4E (Mus musculus, UniProt P63073); assay: eIF4E–eIF4G protein interaction inhibitors, dose response, biochemical, TR-FRET (AID 855); type: functional;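 also: potency for disrupting eIF4E binding to eIF4GI seen as loss of FRET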
Eukaryotic translation initiation factor 4E, sequence (P63073 whole entry): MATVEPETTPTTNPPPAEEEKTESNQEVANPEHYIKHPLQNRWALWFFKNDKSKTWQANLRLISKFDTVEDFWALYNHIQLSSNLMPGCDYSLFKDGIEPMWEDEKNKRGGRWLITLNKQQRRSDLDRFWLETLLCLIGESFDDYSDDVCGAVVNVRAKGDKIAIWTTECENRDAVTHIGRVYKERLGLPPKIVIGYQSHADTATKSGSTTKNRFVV

[22] = molecular target: Heat shock protein HSP 90-alpha (Homo sapiens, UniProt P07900); type: functional, organism-based
Vero = assay: host cell cytotoxicity of antiviral hits, dose response, cytotoxicity control for West Nile virus antiviral project, secondary assay (AID 1650); type: functional; details: Chlorocebus sabaeus
[23] = inhibitors of intracellular T. cruzi replication, confirmation, NIH3T3 host cells, beta-gal luminescence (AID 2044); type: functional, cell-based;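 also: intracellular parasites grown in NIH/3T3 mouse fibroblasts as host cells; luminescent beta-galactosidase reporter signal from transgenic T. cruzi replicating inside host cells; inhibitors lower the luminescence signal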
[24] = molecular target: T7, High affinity choline transporter 1 (Homo sapiens, UniProt Q9GZV3); assay: CHT inhibitors, dose response, cell-based, 5-point CRC, membrane potential dye (AID 504840); type: functional
T7 sequence (Q9GZV3 whole entry): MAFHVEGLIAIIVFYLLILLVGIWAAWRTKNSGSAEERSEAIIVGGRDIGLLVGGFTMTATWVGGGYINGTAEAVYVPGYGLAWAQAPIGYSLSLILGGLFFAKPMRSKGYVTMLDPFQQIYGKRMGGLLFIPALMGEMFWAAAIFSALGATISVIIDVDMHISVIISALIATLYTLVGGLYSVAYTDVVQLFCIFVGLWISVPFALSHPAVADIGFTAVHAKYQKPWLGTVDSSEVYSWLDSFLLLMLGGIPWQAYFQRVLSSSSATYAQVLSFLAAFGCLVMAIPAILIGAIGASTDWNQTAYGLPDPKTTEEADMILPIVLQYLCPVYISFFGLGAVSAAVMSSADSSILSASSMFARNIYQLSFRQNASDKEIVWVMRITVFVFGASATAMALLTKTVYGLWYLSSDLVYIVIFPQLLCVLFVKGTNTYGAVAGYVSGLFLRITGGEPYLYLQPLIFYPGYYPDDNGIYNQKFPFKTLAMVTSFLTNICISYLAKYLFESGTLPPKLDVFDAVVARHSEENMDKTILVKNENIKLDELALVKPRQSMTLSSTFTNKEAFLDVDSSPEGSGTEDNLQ

[25] = growth suppression of PTEN-null colon cells, dose response, cell-based, HCT116 PTEN knockout (AID 1047); type: functional;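 also: HCT116 colon tumor cells with PTEN knocked out; cells exposed to compound for 60 hours before readout; potency for loss of cell viability measured by luminescence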
[26] = growth suppression of beta-catenin-knockout colon cells, dose response, cell-based, HCT116, human colon tumor (AID 1045); type: functional;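 also: HCT116 colon tumor cells with beta catenin knocked out; cells exposed to compound for 60 hours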

5-hydroxytryptamine receptor 1E, sequence (P28566 whole entry): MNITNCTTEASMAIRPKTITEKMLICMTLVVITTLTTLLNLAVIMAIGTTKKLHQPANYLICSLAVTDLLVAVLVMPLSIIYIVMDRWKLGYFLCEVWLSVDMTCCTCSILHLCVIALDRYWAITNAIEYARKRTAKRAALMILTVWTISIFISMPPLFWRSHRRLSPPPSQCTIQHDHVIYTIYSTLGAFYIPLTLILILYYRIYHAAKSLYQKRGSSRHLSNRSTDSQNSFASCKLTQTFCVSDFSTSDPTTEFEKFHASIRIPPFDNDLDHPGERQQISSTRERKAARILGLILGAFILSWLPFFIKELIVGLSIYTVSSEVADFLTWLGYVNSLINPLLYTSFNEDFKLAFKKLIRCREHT

O=C(Nc1ccc(F)cc1F)c1c(C(F)(F)F)ccnc1Oc1ccc(Cl)cc1
IC50 [1]: > 50 µM (not active) | IC50 [2]: 4.29 µM (active)

Cc1ccc(Sc2c(CO)c(-c3ccccc3)nn2C)cc1
EC50 [3]: 1.37 µM (inconclusive) | EC50 [4]: > 120 µM (not active) | EC50 (H4): > 120 µM (not active) | EC50 [5]: > 3.8 µM (not active) | EC50 [6]: 0.658 µM (inconclusive)

COC(=O)c1c(N(S(C)(=O)=O)S(C)(=O)=O)sc2c1CCN(c1ncc(C(F)(F)F)cc1Cl)C2
CC50 [7]: 16.9 µM (active) | IC50 [8]: 29.2 µM (active)

CCOC(=O)c1ccccc1NC(=O)c1c(F)c(F)c(F)c(F)c1F
EC50 [9]: 15.7 µM (active) | EC50 [10]: 13.6 µM (active)

O=C1c2ccccc2C(=O)c2c1ccc1c(O)n(-c3ccccc3)nc21
EC50 [3]: 0.563 µM (active) | EC50 [11]: < 0.1 µM (active) | EC50 [4]: < 0.1 µM (active) | EC50 (H4): 59.2 µM (inconclusive) | EC50 [5]: 0.478 µM (active) | EC50 [6]: 0.36 µM (active)

CCN(CC)c1nc2ccccc2nc1C(C#N)C(=O)NCCc1ccccc1 (stereo unspecified)
EC50 [9]: > 20 µM (not active) | EC50 [10]: > 20 µM (not active) | EC50 [12]: > 99 µM (inactive) | EC50 [13]: > 99 µM (inactive)

O=C1CC(/C=C/c2ccco2)=Nc2ccccc2N1
IC50 (Estrogen receptor): > 50 µM (not active)

O=C(N/N=C/c1ccc(-c2ccc([N+](=O)[O-])cc2)o1)[C@H]1C[C@@H]1c1ccccc1
IC50 [1]: 1.96 µM (active) | IC50 [2]: 3.03 µM (active)

COc1ccc(OC)c(N(CC(=O)N2CCCCC2)S(=O)(=O)c2ccc(OC)c(OC)c2)c1
EC50 (Mucolipin-3): 1.67 µM (active) | EC50 (Ion channel NompC): 25.6 µM (not active)

O=C(Nc1nc(-c2ccco2)c(-c2ccco2)s1)C1CCC1
IC50 (NS3): 30.4 µM (not active)

Cc1ccc(C(=O)NNC(=O)CSc2n[nH]c3c4cc(F)ccc4nc-3n2)cc1
IC50 (Protein Rev): > 79.4 µM (not active) | IC50 [14]: 5.25 µM (active) | IC50 [15]: 28.6 µM (active) | IC50 [16]: 5.22 µM (active) | IC50 [17]: 14.6 µM (active) | IC50 [18]: 17.5 µM (active)

COC(=O)c1ccc(CSc2nc(C)nc3sc(C)c(C)c23)o1
IC50 (Estrogen receptor): 48.9 µM (not active)

O=C(Nc1ccc(-c2nc3ccccc3[nH]2)cc1)c1ccccc1NS(=O)(=O)c1ccc(F)cc1
IC50 [19]: > 50 µM (active)

CCCCCCCCCCCCCCCC[n+]1ccn(CC(C)=O)c1
IC50 [19]: 4.25 µM (active) | IC50 [20]: 21.1 µM (not active) | IC50 [21]: 10.1 µM (active) | AC50 [22]: 2.86 µM (active)

CCCCN(CCCC)S(=O)(=O)c1ccc(NC(=O)c2ccc([N+](=O)[O-])cc2Cl)cc1
CC50 (Vero): 10.1 µM (active) | EC50 [23]: 0.798 µM (active) | IC50 [20]: 1.42 µM (not active) | IC50 [24]: 12.6 µM (active)

N#Cc1cccc(NC(=O)CSc2ccc3c4c(cccc24)C(=O)c2ccccc2-3)c1
EC50 [25]: 15.3 µM (active) | IC50 [14]: 4.87 µM (active) | EC50 [26]: 19.6 µM (active)
